Experimental data reported in patent US6517812B1, “Inhibition of psychostimulant-induced and nicotine-induced craving” (The General Hospital Corporation, priority 1997, dated 2003).

Columns and labels:
D1 receptor [1] = biological target: T1, D1 receptor (Rattus norvegicus, UniProt P18901); assay: SCH-23390 pretreatment before cocaine, CBV-weighted fMRI in rat; format: in vivo; details: post 0.5 mg/kg cocaine
T1 construct: Male Harlan Sprague-Dawley rats (225-300 gm) were anesthetized briefly; from tissue; host or cells: brain of living male Sprague-Dawley rats (in vivo)

D1 receptor [2] = biological target: T1, D1 receptor; assay: SCH-23390 pretreatment before cocaine, LDF of frontal cortex CBF in rat; format: in vivo; details: 0.5 mg/kg cocaine after SCH-23390 pretreatment, n=3, p<0.04
Experimental: All procedures were carried out in accordance with NIH guidelines. Male Harlan Sprague-Dawley rats (225-300 gm) were anesthetized briefly with 1.5% halothane in oxygen for insertion of left femoral arterial and venous cannulae and placement of tracheostomy for mechanical ventilation (using a 16 gauge intravenous catheter, Inste-W, Becton Dickinson, Sandy, Utah). All wounds were infiltrated with 1% lidocaine before incision. Following surgery, the inspired halothane concentration was reduced to 0.7% and rats were paralyzed with 2 mg/kg intravenous pancuronium, followed by a continuous intravenous infusion of pancuronium at 2 mg/kg/hr. Pancuronium was dissolved in normal saline administered at 5 ml/kg/hr. […] Arterial blood samples (150 μl) withdrawn from cannula were analyzed for arterial partial pressures of oxygen, carbon dioxide, and pH (Ciba-Coming Model 1304) before administration of drugs, and at the end of each experiment before sacrifice, to ensure animal stability. Arterial blood pressure and rectal temperature were monitored throughout the experiment. […]
(§1) Regional cortical blood flow was determined by LDF (Perimed, PF2B, Stockholm, Sweden) as described previously (Ayata, et al., 1996, J. Cereb. Blood Flow Metab., 16:539-541). […] All data were collected, stored, and analyzed using MacLab/8 data acquisition and analysis system (ADInstruments, Mountain View, Calif.). […]

rat frontal cortex = assay: Laser Doppler-flowmetry (LDF) of regional cortical blood flow (CBF) in rat; format: in vivo; details: rat, bolus infusion 1, 5, 10 and 20 mg/kg (data not shown)
Experimental: (§2) All procedures were carried out in accordance with NIH guidelines. Male Harlan Sprague-Dawley rats (225-300 gm) were anesthetized briefly with 1.5% halothane in oxygen for insertion of left femoral arterial and venous cannulae and placement of tracheostomy for mechanical ventilation (using a 16 gauge intravenous catheter, Inste-W, Becton Dickinson, Sandy, Utah). All wounds were infiltrated with 1% lidocaine before incision. Following surgery, the inspired halothane concentration was reduced to 0.7% and rats were paralyzed with 2 mg/kg intravenous pancuronium, followed by a continuous intravenous infusion of pancuronium at 2 mg/kg/hr. Pancuronium was dissolved in normal saline administered at 5 ml/kg/hr. Rats were mechanically ventilated (in a small animal volume controlled ventilator, Harvard Apparatus, Inc., South Natick, Mass.) with a 80/20 air/oxygen mixture, an inspiratory to expiratory ratio of 1:1, and an initial tidal volume of 3.0 ml at a rate of 40 breaths per minute. Ventilation parameters were adjusted to maintain normal arterial blood gases (pH=7.40±0.01, PaCO2=40±2, PaO2=145±10). Arterial blood samples (150 μl) withdrawn from cannula were analyzed for arterial partial pressures of oxygen, carbon dioxide, and pH (Ciba-Coming Model 1304) before administration of drugs, and at the end of each experiment before sacrifice, to ensure animal stability. Arterial blood pressure and rectal temperature were monitored throughout the experiment. […] Rats torsos were wrapped in two heating blankets (Gaymar, Orchid Park, N.Y.) circulating warm water to maintain core temperature at 37-38° C. To minimize MRI motion artifact, rats were placed into a custom plastic cradle attached to a head frame machined from delrin plastic (David Kopf Instruments, Fremont, Calif.); heads were fixed with plastic screws inserted into the ear canals and a bar inserted under the front incisors. Rat heads were shaved and covered with gel toothpaste to reduce magnetic susceptibility artifacts arising from air-tissue interfaces; ear canals and oropharynx were also filled with toothpaste. A surface coil was secured over the dorsal surface of the head before positioning the animal in the magnet center. Cocaine (RBI, Natick, Mass.), SCH-23390 (RBI, Natick, Mass.), and cocaine methiodide (NIDA, Bethesda, Md.) were dissolved in normal saline and administered in a 0.5 ml volume at a rate of 1 ml/min via the femoral vein. Sixty minutes passed before injections of cocaine were repeated.
Regional cortical blood flow was determined by LDF (Perimed, PF2B, Stockholm, Sweden) as described previously (Ayata, et al., 1996, J. Cereb. Blood Flow Metab., 16:539-541). Rats (n=8) were prepared exactly as for dynamic MR studies and positioned in a standard stereotaxic head frame. With the scalp incised and retracted, two holes (1-2 mm in diameter) were drilled through the skull 2 mm lateral to midline; one hole was 2 mm anterior to bregma overlying frontal cortex, and the other was 8 mm posterior to bregma to examine occipital cortex. The flow probe was positioned directly upon exposed dura mater in a puddle of mineral oil. […] All data were collected, stored, and analyzed using MacLab/8 data acquisition and analysis system (ADInstruments, Mountain View, Calif.). Arterial pressure was continuously monitored and the data stored; heart rate was calculated from arterial pressure pulses by the data acquisition software. […]

[3] = system: Male Harlan Sprague-Dawley rats; assay: Arterial blood pressure and heart rate monitoring in rat; details: bolus infusion 1, 5, 10 and 20 mg/kg
Experimental: as §2, with “To minimize MRI motion artifact, rats were placed into a custom plastic cradle attached to a head frame machined from delrin plastic (David Kopf Instruments, Fremont, Calif.); heads were fixed with plastic screws inserted into the ear canals and a bar inserted under the front incisors. Rat heads were shaved and covered with gel toothpaste to reduce magnetic susceptibility artifacts arising from air-tissue interfaces; ear canals and oropharynx were also filled with toothpaste. A surface coil was secured over the dorsal surface of the head before positioning the animal in the magnet center. Cocaine (RBI, Natick, Mass.), SCH-23390 (RBI, Natick, Mass.), and cocaine methiodide (NIDA, Bethesda, Md.) were dissolved in normal saline and administered in a 0.5 ml volume at a rate of 1 ml/min via the femoral vein. Sixty minutes passed before injections of cocaine were repeated.” left out
as §1, with “Calif.). Arterial pressure was continuously monitored and the data stored; heart rate was calculated from arterial pressure pulses by the data acquisition software.” for “Calif.).”

[4] = literature (Schindler 1992, Hemby 1994); cited from earlier work

T1 sequence (P18901 whole entry): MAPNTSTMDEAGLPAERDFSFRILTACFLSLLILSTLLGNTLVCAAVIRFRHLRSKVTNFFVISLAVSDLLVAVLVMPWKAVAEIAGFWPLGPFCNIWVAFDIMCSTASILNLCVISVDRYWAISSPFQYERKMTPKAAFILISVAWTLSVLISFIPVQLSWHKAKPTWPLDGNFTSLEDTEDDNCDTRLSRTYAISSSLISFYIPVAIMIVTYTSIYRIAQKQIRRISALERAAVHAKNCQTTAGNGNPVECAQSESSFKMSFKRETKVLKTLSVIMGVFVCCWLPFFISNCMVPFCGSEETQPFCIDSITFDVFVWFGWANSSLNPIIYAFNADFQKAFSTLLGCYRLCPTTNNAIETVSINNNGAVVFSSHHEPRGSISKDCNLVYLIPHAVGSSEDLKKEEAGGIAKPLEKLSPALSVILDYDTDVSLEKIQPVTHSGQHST

Row | SMILES | drop in CBV at nadir, frontal neocortex (D1 receptor [1]) [%] | drop in CBV at nadir, striatum (D1 receptor [1]) [%] | change in CBF relative to pre-drug baseline (D1 receptor [2]) [%] | change in frontal cortex CBF (rat frontal cortex) | blood pressure and heart rate [3] | blood brain barrier passage [4]
1 | CN1CCc2cc(Cl)c(O)cc2[C@@H](c2ccccc2)C1 [SCH-23390] | 5 | 8 | −18±3 | – | – | –
2 | COC(=O)[C@H]1[C@@H](OC(=O)c2ccccc2)C[C@@H]2CC[C@H]1[N+]2(C)C.[I-] [cocaine methiodide] | – | – | – | did not produce any significant change | transient decrease | does not cross the blood brain barrier
